Experimental data: ChEMBL document CHEMBL1140089 (J Med Chem, 2008)

Biological target: MAP kinase-activated protein kinase 2 (Homo sapiens, UniProt P49137)
Experiment: Inhibition of human recombinant MK2 expressed in Escherichia coli BL21(DE3) after 60 mins

Sequence of MAP kinase-activated protein kinase 2 (P49137 whole entry): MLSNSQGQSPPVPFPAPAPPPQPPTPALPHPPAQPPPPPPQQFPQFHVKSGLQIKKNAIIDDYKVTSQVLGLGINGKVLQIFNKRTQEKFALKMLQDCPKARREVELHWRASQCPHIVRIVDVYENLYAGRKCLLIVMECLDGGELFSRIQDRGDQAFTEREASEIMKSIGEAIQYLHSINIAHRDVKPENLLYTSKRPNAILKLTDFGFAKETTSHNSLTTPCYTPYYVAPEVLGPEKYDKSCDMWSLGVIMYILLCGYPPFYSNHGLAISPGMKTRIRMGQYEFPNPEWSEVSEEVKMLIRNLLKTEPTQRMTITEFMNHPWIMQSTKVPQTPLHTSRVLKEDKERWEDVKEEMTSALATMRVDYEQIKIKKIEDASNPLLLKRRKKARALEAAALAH

Row | IC50 [µM] | Structure (SMILES)
1 | > 100 | Oc1cccc2ccccc12 [1-NAPHTHOL]
2 | 85 | Oc1cccc2cnccc12
